# Laboratory results taken from patent US5496935A, “2',3'-dideoxynucleoside pyrimidine compounds and carbocyclic analogs” (Max-Delbru/ ck-Centrum, priority 1994, dated 1996).
# Legend:
# [1] = test system: HIV-1 (HTLV IIIa); assay: Inhibition of the cytopathic effect of HIV on T lymphocyte cells (protection of MT-4 cells); format: cell-based; conditions: for EC50: Human immunodeficiency virus 1, MT4, 50% protection of MT-4 cells against HIV-1 (HTLV IIIa), read-out: 50% antiviral dose (ED50)
# Excerpt: 2. Inhibition of the cytopathic effect of HIV on T lymphocyte cells
# (§1) Under in vitro conditions, an infection of T lymphocytes with HIV leads to the death of the cells within a few days. The MT-4 cells, described by Harada et al. in Science 229, 563 (1985), were used in a test system (Matthes et al., Biochem. Biophys., Res. Commun. 153, 825 (1988)), to test to what extent the inventive nucleosides can nullify the cytocidal effect of HIV-1 (HTLV IIIa) on this T cell line. In addition, the antiproliferative effectiveness of the nucleosides investigated is listed and, moreover, as the concentration which decreases the proliferation of the MT-4 cells by 50% (CD50).
# (§2) Comparison of the antiviral and antiproliferative effectiveness
# (§3) of nucleoside analogies using MT-4 cells
# [2] = Antiproliferative effect on MT-4 cells; format: cell-based, human; conditions: human, mt-4 cells
# Excerpt: as §1, with “(CD50). […]” for “(CD50).”
# as §2, §3
# [3] = target: T1, HIV-associated reverse transcriptase (HIV-RT) (Human immunodeficiency virus type 1 group M subtype B, UniProt P04585); assay: Inhibition of the HIV-associated reverse transcriptase (HIV-RT); format: biochemical
# T1 construct: HIV-associated reverse transcriptase (HIV-RT)
# Protocol: 1. Selective inhibition of the HIV-associated reverse transcriptase (HIV-RT) by 3'-fluoro-4-thiothymidine-triphosphate
# (§4) For these investigations, the effect of the compound on the activity of HIV-RT as well as on the cellular DNA polymerase was determined using the methods described by Matthes et al., in Biochem. Biophys. Res. Commun. 148, 78 (1987). Different concentrations of 3'-fluoro-4-thiothymidine triphosphate were added to the enzyme preparations. The concentrations of 3'-fluoro-4-thiothymidine triphosphate, which inhibit the polymerases investigated to the extent of 50% (ID50), were determined from the inhibition curves obtained. […] Accordingly 3'-fluoro-4-thiothymidine triphosphate inhibits the HIV-RT 700 times more effectively than the cellular DNA polymerase and thus has a largely selective effect on the HIV replication.
# [4] = target: T2, DNA polymerase (Homo sapiens, UniProt P09884); assay: Inhibition of cellular DNA polymerase (enzyme mainly responsible for cellular replication); format: biochemical; conditions: read-out: ID50 (concentration inhibiting the polymerase to the extent of 50%), DNA polymerase
# T2 sequence (P09884 1-1462): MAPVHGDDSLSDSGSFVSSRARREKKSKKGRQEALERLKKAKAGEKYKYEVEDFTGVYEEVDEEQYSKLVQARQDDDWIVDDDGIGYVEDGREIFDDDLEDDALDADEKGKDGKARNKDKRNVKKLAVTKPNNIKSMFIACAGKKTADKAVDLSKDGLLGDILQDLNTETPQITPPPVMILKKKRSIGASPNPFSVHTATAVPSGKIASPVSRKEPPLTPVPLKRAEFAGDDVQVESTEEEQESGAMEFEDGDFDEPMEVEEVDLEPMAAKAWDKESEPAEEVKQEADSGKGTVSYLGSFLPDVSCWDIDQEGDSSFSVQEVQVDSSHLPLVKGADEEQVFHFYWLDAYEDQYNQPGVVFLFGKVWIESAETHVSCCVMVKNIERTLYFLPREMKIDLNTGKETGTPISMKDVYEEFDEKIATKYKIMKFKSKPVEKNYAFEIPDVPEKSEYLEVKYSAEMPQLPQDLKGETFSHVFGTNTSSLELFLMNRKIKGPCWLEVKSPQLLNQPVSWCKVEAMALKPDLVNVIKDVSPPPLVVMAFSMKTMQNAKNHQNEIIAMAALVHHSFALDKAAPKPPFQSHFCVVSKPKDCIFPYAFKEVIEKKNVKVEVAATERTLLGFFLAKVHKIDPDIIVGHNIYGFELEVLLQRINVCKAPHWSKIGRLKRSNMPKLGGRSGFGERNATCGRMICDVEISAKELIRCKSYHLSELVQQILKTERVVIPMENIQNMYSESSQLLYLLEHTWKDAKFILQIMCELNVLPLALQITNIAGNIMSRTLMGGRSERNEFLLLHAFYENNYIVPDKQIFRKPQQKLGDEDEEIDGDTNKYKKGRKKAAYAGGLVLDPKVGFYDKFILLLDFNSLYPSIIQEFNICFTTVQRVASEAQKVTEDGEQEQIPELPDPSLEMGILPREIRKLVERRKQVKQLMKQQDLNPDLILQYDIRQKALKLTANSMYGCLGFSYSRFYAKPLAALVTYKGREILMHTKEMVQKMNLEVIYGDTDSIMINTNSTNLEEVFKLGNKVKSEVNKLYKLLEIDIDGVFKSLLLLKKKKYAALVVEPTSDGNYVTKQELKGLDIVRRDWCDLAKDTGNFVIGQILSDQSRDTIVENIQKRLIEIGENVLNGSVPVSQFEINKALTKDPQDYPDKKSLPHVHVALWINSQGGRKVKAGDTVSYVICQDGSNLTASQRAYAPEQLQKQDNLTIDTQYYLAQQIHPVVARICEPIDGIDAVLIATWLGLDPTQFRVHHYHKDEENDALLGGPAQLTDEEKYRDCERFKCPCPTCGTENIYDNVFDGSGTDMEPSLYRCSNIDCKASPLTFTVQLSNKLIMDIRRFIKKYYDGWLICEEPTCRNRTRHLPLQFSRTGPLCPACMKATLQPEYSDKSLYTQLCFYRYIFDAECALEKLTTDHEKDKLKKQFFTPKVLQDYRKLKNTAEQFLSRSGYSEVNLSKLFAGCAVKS
# Protocol: as §4
# [5] = target: DNA polymerase β (Homo sapiens, UniProt P06746); assay: Inhibition of DNA polymerase β (cellular DNA repair enzyme); format: biochemical; conditions: read-out: ID50 (concentration inhibiting the polymerase to the extent of 50%), DNA polymerase β
# Protocol: as §4
# [6] = test system: AIDS patients; conditions: cited from earlier work
# [7] = test system: MT-4 cells; assay: Antiproliferative effect on MT-4 cells; format: cell-based, human
# Excerpt: as §1, with “(CD50). […]” for “(CD50).”
# as §2, §3
# [8] = In vitro cytotoxicity to cell cultures, REH; format: cell-based; conditions: human, reh cells; read-out: CD50, antiproliferative effect
# Excerpt: (§5) 3. In vitro cytotoxicity of 3'-fluoro-4-thiothymidine to cell cultures
# (§6) A series of further human cell lines was included in the investigation of the antiproliferative effect of 3'-fluoro-4-thiothymidine and the following CD50 were found: […]
# [9] = In vitro cytotoxicity to cell cultures, HELFI; format: cell-based; conditions: human, helfi lung fibroblasts; read-out: CD50, antiproliferative effect
# Excerpt: as §5, §6
# [10] = In vitro cytotoxicity to cell cultures, H-8; format: cell-based; conditions: human, h-8 cells; read-out: CD50, antiproliferative effect
# Excerpt: as §5, §6
# [11] = In vitro cytotoxicity to cell cultures, Molt-4; format: cell-based; conditions: human, molt-4 cells; read-out: CD50, antiproliferative effect
# Excerpt: as §5, §6
# [12] = test system: colony-forming cells of the bone marrow of the mouse (GM-CFU); assay: Growth inhibition of colony-forming cells of the bone marrow (GM-CFU); format: cell-based; conditions: concentrations up to 100 micromoles/L
# [13] = AIDS patients with Pneumocystis carinii pneumonia
EC50 [1],SMILES,CC50 [2],also measured
12 µM,"CSc1ccn([C@H]2C[C@H](F)[C@@H](CO)O2)c(=O)n1 [1-(2,3-dideoxy-3-fluoro-β-D-ribofuranosyl)-4-methylmercapto-pyrimidine-2-one]",50 µM,
,"Cc1cn([C@H]2C[C@H](F)[C@@H](COP(=O)(O)OP(=O)(O)OP(=O)(O)O)O2)c(=O)[nH]c1=S [3'-fluoro-4-thiothymidine triphosphate, 1-(2,3-Dideoxy-3-fluoro-β-D-ribofuranosyl)-4-thiothymine-5'-triphosphate]",,"inhibits the HIV-RT times more effectively than the cellular DNA polymerase ([3]; HIV-RT versus cellular DNA polymerase): 700 times; IC50 ([3]; HIV-RT, read-out: ID50 (concentration inhibiting the polymerase to the extent of 50%), HIV-RT): 0.3 µM; IC50 [4]: 140 µM; IC50 [5]: 7 µM"
,Cc1ccc(C(=O)Nc2ccc(S(=O)(=O)O)c3cc(S(=O)(=O)O)cc(S(=O)(=O)O)c23)cc1NC(=O)c1cccc(NC(=O)Nc2cccc(C(=O)Nc3cc(C(=O)Nc4ccc(S(=O)(=O)O)c5cc(S(=O)(=O)O)cc(S(=O)(=O)O)c45)ccc3C)c2)c1 [Suranim],,tolerance and effectiveness (in words) ([6]; clinically tested): have not yet attained the necessary tolerance and the hoped-for effectiveness
0.85 µM,"Cc1cn([C@H]2C=C[C@@H](CO)O2)c(=O)[nH]c1=S [1-(2,3-Dideoxy-β-D-glycero-pent-2-enofuranosyl)-4-thiothymine]",350 µM,
30 µM,"O=c1ncccn1[C@H]1C[C@H](F)[C@@H](CO)O1 [1-(2,3-dideoxy-3-fluoro-β-D-ribofuranosyl)-pyrimidine-2-one]",> 800 µM,
12 µM,"Cc1cnc(=O)n([C@H]2C[C@H](F)[C@@H](CO)O2)c1 [1-(2,3-dideoxy-3-fluoro-β-D-ribofuranosyl)-5-methyl-pyrimidine-2-one]",> 400 µM,
100 µM,"Cc1cn([C@H]2C[C@H](F)[C@@H](CO)O2)c(=O)nc1NO [1-(2,3-Dideoxy-3-fluoro-β-D-ribofuranosyl)-4-hydroxylamino-5-methyl-(1H)-pyrimidine-2-one]",300 µM,
1.8 µM,"Cc1cn([C@H]2C[C@H](F)[C@@H](CO)O2)c(=O)[nH]c1=S [1-(2,3-Dideoxy-3-fluoro-β-D-ribofuranosyl)-4-thiothymine]",480 µM,inhibition of HIV replication (summary in words) [1]: effective inhibitor of HIV replication; effect on cell proliferation (in words) ([7]; MT-4 cells): hardly any effect on the cell proliferation; cytotoxicity (summary in words) ([7]; summary of the cell tests): very slight cytotoxicity; CC50 [8]: 500 µM; CC50 [9]: 700 µM; CC50 [10]: ≥ 800 µM; CC50 [11]: ≥ 1000 µM; growth-inhibiting effect on colony-forming cells of the bone marrow [12]: no growth-inhibiting effect whatsoever
,Cc1cn([C@H]2C[C@H](N=[N+]=[N-])[C@@H](CO)O2)c(=O)[nH]c1=O [3'-azidothymidine],,"clinical and neurological findings (in words) [6, 13]: improvements in clinical and neurological findings; immunological functions (in words) [6, 13]: occasional restoration of certain immunological functions; life prolonging effects (in words) [6, 13]: unambiguous life prolonging effects; patients in whom toxic side effects on the bone marrow make blood transfusions necessary ([6]; AIDS patients): about 50%"
100 µM,"O=c1nc(NO)ccn1[C@H]1C[C@H](F)[C@@H](CO)O1 [1-(2,3-Dideoxy-3-fluoro-β-D-glycero-ribofuranosyl)-4-hydroxylamino-(1H)-pyrimidine-2-one]",100 µM,
> 1000 µM,"CSc1nc(=O)n([C@H]2C[C@H](F)[C@@H](CO)O2)cc1C [1-(2,3-Dideoxy-3-fluoro-β-D-ribofuranosyl)-4-methylmercapto-5-methyl-(1H)-pyrimidine-2-one]",> 1000 µM,
15 µM,"O=c1[nH]c(=S)ccn1[C@H]1C[C@H](F)[C@@H](CO)O1 [1-(2,3-Dideoxy-3-fluoro-β-D-ribofuranosyl)-4-thiouracil]",150 µM,
